Read-outs that look alike come from different tables or passages of the source.
Experiments:
[1] = tested on: C. acnes; experiment: Bactericidal (killing) efficacy in the presence of citrated human blood, C. acnes; format: cell-based; conditions: Table II
Description: In a similar manner, additional antimicrobial compositions of this invention have been tested and a summary of the test results appears in Table II.

[2] = tested on: S. aureus; experiment: Bactericidal (killing) efficacy in the presence of citrated human blood, S. aureus; format: cell-based; conditions: Table II
Experimental: (§1) A series of the following four solutions was prepared in accordance with the foregoing procedure: […]

[3] = stratum corneum; previous studies; cited from earlier work
[4] = tested on: P. aeruginosa; experiment: Bactericidal (killing) efficacy in the presence of citrated human blood, P. aeruginosa; format: cell-based; conditions: Table I, 40% ethanol
Experimental: as §1

[5] = tested on: C. albicans; experiment: Killing efficacy in the presence of citrated human blood, C. albicans; format: cell-based
Experimental: as §1

[6] = tested on: Staphylococcus aureus; experiment: Topical staphylococcal infection in rats; format: in vivo, Staphylococcus aureus in rats; conditions: for Abscess formation (share of animals): topical staphylococcal infection
Description: In tests and operative techniques carried out according to the procedure set forth in F. Goldschmidt, Reproducible Topical Staphylococcal Infection in Rats, Applied Microbiology, 23, No. 1, p.

[7] = tested on: intact human skin; conditions: alcohol potentiators 10%
Experimental: To illustrate the enhanced penetration of the topical compositions of the invention, the following formulation was employed to prepare compositions which were then tested in a standardized skin blanching test wherein the degree of blanching corresponds to the degree of penetration.

[8] = preparation containing 20% benzocaine; intact skin; cited from earlier work

Cc1cc(N)c2ccccc2[n+]1CCCCCCCCCC[n+]1c(C)cc(N)c2ccccc21 [Dequalinium chloride]
Number of Cells Survived ([1]; 0.00125%, 1 minute): 26 × 10^5 cells | Number of Cells Survived ([1]; 0.00125%, 10 minutes): 14 × 10^2 cells | Number of Cells Survived ([1]; 0.00125%, 30 minutes): 30 cells

O=c1[nH]c(=O)n([C@H]2C[C@H](O)[C@@H](CO)O2)cc1I [5-iodo-2-deoxyuridine]
Number of Cells Survived ([2]; 0.2%, 1 minute): 30 × 10^7 cells | Number of Cells Survived ([2]; 0.2%, 10 minutes): 30 × 10^7 cells | Number of Cells Survived ([2]; 0.2%, 30 minutes): 30 × 10^7 cells

C[S+](C)[O-] [dimethylsulfoxide (DMSO), dimethylsulfoxide]
Absorption of topically applied drugs [3]: can enhance the absorption of topically applied drugs through the stratum corneum

OCCC1CCCCC1 [2-Cyclohexylethanol, 2-cyclohexylethanol]
Number of Cells Survived ([4]; contact time 1 minute): 1.1 × 10^6 cells | Number of Cells Survived ([4]; contact time 10 minutes): 7.8 × 10^4 cells | Number of Cells Survived ([4]; contact time 30 minutes): 4.8 × 10^4 cells

CCCC(C)C(C)(C)O (stereo not drawn) [2,3-Dimethyl-2-hexanol, 2,3-dimethyl-2-hexanol]
Number of Cells Survived ([4]; contact time 1 minute): 8.5 × 10^6 cells | Number of Cells Survived ([4]; contact time 10 minutes): 7.6 × 10^6 cells | Number of Cells Survived ([4]; contact time 30 minutes): 5.1 × 10^6 cells

[O-][n+]1ccccc1[S-].[O-][n+]1ccccc1[S-].[Zn+2] [Zn--omadine]
Number of Cells Survived ([5]; Table I, contact time 1 minute, human blood, 40% ethanol): 9 × 10^8 cells | Number of Cells Survived ([5]; Table I, contact time 10 minutes, human blood, 40% ethanol): 8.0 × 10^8 cells | Number of Cells Survived ([5]; Table I, contact time 30 minutes, human blood, 40% ethanol): 7 × 10^8 cells

CCC(O)C1CCCCC1 (stereo not drawn) [1-Cyclohexyl-1-propanol, 1-cyclohexyl-1-propanol]
Recoverable Staphylococcus aureus ([6]; 3.0%, alone, rats): ≥ 10^6 cells per gram of excised body wall | Abscess formation (share of animals) ([6]; rats): 100%

COC1=CC(=O)C[C@@H](C)[C@]12Oc1c(Cl)c(OC)cc(OC)c1C2=O [Griseofulvin]
Number of Cells Survived ([1]; 0.0125%, 1 minute): 94 × 10^5 cells | Number of Cells Survived ([1]; 0.0125%, 10 minutes): 99 × 10^5 cells | Number of Cells Survived ([1]; 0.0125%, 30 minutes): 92 × 10^5 cells

CNC[C@H](O)c1ccc(O)c(O)c1 [Epinephrine (E)]
Skin blanching score (penetration of epinephrine) ([7]; 10 min after application): 0 | Skin blanching score (penetration of epinephrine) ([7]; 20 min after application): 0-1 | Skin blanching score (penetration of epinephrine) ([7]; 30 min after application): 0 | Skin blanching score (penetration of epinephrine) ([7]; 40 min after application): 0 | Skin blanching score (penetration of epinephrine) ([7]; 50 min after application): 0 | Skin blanching score (penetration of epinephrine) ([7]; 60 min after application): 0

CCOC(=O)c1ccc(N)cc1 [benzocaine]
Surface anesthesia [8]: effective to cause surface anesthesia

CCCCCCCCCCCC[N+](C)(C)CCOc1ccccc1 [Domiphen bromide]
Animals from which S. aureus could be recovered ([6]; 10^5 or more cells per gram of excised body wall): 82.3% | Abscess formation (share of animals) ([6]; rats): 82.3%

N[C@@H]1CON=C1O [Cycloserine]
Number of Cells Survived ([2]; 0.0125%, 1 minute): 60 × 10^7 cells | Number of Cells Survived ([2]; 0.0125%, 10 minutes): 60 × 10^7 cells | Number of Cells Survived ([2]; 0.0125%, 30 minutes): 60 × 10^7 cells

N=C(NCCCCCCNC(=N)NC(=N)Nc1ccc(Cl)cc1)NC(=N)Nc1ccc(Cl)cc1 [Hibitane]
Number of Cells Survived ([1]; 0.0125%, 1 minute): 45 × 10^6 cells | Number of Cells Survived ([1]; 0.0125%, 10 minutes): 51 × 10^5 cells | Number of Cells Survived ([1]; 0.0125%, 30 minutes): 0 cells

O=C(Nc1ccc(Br)cc1)c1cc(Br)cc(Br)c1O [Temasept IV, 3,4',5tribromosalicylanilide]
Number of Cells Survived ([2]; 0.05%, 1 minute): 4.2 × 10^8 cells | Number of Cells Survived ([2]; 0.05%, 10 minutes): 4.0 × 10^8 cells | Number of Cells Survived ([2]; 0.05%, 30 minutes): 1.2 × 10^8 cells

O=C(Nc1ccc(Cl)cc1)Nc1ccc(Cl)c(Cl)c1 [3,4,4'-Chlorocarbanilide]
Number of Cells Survived ([2]; 0.05%, 1 minute): 6.1 × 10^7 cells | Number of Cells Survived ([2]; 0.05%, 10 minutes): 5.2 × 10^7 cells | Number of Cells Survived ([2]; 0.05%, 30 minutes): 3.0 × 10^7 cells

CCCCCCCCCCCCC[N+](C)(C)Cc1ccccc1 [Benzalkonium chloride]
Number of Cells Survived ([2]; 0.05%, 1 minute): 9.0 × 10^5 cells | Number of Cells Survived ([2]; 0.05%, 10 minutes): 1.0 × 10^5 cells | Number of Cells Survived ([2]; 0.05%, 30 minutes): 2.9 × 10^3 cells

CO[C@H]1/C=C/O[C@@]2(C)Oc3c(C)c(O)c4c(O)c(c(/C=N/N5CCN(C)CC5)c(O)c4c3C2=O)NC(=O)/C(C)=C\C=C\[C@H](C)[C@H](O)[C@@H](C)[C@@H](O)[C@@H](C)[C@H](OC(C)=O)[C@@H]1C [Rifampicin]
Number of Cells Survived ([1]; 0.0125%, 1 minute): 17 × 10^6 cells | Number of Cells Survived ([1]; 0.0125%, 10 minutes): 17 × 10^6 cells | Number of Cells Survived ([1]; 0.0125%, 30 minutes): 13 × 10^6 cells

CN(C)C1C(=O)C(C(N)=O)=C(O)C2(O)C(=O)C3=C(O)c4c(O)cccc4C(C)(O)C3CC12 (stereo not drawn) [Tetracycline]
Number of Cells Survived ([2]; 0.05%, 1 minute): 4.2 × 10^8 cells | Number of Cells Survived ([2]; 0.05%, 10 minutes): 4.1 × 10^8 cells | Number of Cells Survived ([2]; 0.05%, 30 minutes): 3.8 × 10^7 cells | Number of Cells Survived ([5]; Table II, 0.05%, 1 minute): 4.3 × 10^7 cells | Number of Cells Survived ([5]; Table II, 0.05%, 10 minutes): 3.9 × 10^7 cells | Number of Cells Survived ([5]; Table II, 0.05%, 30 minutes): 3.6 × 10^7 cells

CC[C@H]1OC(=O)[C@H](C)[C@@H](O[C@H]2C[C@@](C)(OC)[C@@H](O)[C@H](C)O2)[C@H](C)[C@@H](O[C@@H]2O[C@H](C)C[C@H](N(C)C)[C@H]2O)[C@](C)(O)C[C@@H](C)C(=O)[C@H](C)[C@@H](O)[C@]1(C)O [Erythromycin]
Number of Cells Survived ([1]; 0.0125%, 1 minute): 22 × 10^5 cells | Number of Cells Survived ([1]; 0.0125%, 10 minutes): 21 × 10^5 cells | Number of Cells Survived ([1]; 0.0125%, 30 minutes): 18 × 10^5 cells | Number of Cells Survived ([2]; 0.025%, 1 minute): 4.9 × 10^7 cells | Number of Cells Survived ([2]; 0.025%, 10 minutes): 4.6 × 10^7 cells | Number of Cells Survived ([2]; 0.025%, 30 minutes): 4.3 × 10^ 7 cells | Number of Cells Survived ([5]; Table II, 0.025%, 1 minute): 7.2 × 10^8 cells | Number of Cells Survived ([5]; Table II, 0.025%, 10 minutes): 7.1 × 10^8 cells | Number of Cells Survived ([5]; Table II, 0.025%, 30 minutes): 9.2 × 10^7 cells

Reference: patent publication US4474748A, “Medicaments potentiated with phenyl alkanols” (priority 1981, dated 1984)
